Activity calls are given as the source filed them. The calls are words filed in the database; no cut-off is given here.
Key:
Carbonic anhydrase 2 = Carbonic anhydrase 2 (Homo sapiens, UniProt P00918); assay: Inhibition of human erythrocytes CA2 using 4-nitrophenylacetate as substrate by esterase assay
Carbonic anhydrase 1 [1] = target: T1, Carbonic anhydrase 1 (Homo sapiens, UniProt P00915); assay: Competitive inhibition of human erythrocytes CA1 using 4-nitrophenylacetate as substrate by Lineweaver-Burk plot analysis
Target sequence in this assay (P00915 2-261 limits assumed): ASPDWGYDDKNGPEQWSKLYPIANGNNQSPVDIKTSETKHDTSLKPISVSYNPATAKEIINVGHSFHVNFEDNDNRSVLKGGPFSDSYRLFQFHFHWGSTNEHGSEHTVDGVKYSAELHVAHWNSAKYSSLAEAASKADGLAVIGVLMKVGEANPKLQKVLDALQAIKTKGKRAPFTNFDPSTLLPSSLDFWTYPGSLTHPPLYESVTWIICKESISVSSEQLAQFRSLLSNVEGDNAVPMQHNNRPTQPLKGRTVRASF

Carbonic anhydrase 1 [2] = target: T1, Carbonic anhydrase 1; assay: Inhibition of human erythrocytes CA1 using 4-nitrophenylacetate as substrate by esterase assay
Target sequence in this assay (P00915 whole entry): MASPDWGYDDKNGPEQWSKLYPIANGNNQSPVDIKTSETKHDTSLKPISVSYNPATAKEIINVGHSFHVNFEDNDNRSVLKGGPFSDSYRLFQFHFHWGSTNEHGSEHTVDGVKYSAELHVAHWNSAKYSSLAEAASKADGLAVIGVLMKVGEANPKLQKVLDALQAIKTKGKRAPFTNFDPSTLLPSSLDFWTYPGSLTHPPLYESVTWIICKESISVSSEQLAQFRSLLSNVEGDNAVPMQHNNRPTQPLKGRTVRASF

CC(=O)n1cc(Br)c(=O)[nH]c1=O
Ki (Carbonic anhydrase 2; read-out: Ki): 778 µM
inhibition mode (Carbonic anhydrase 1 [1]): Active
Ki (Carbonic anhydrase 1 [2]): 464 µM

Cn1ccc(=O)n(C)c1=O
Ki (Carbonic anhydrase 2; read-out: Ki): 166 µM
inhibition mode (Carbonic anhydrase 1 [1]): Active
Ki (Carbonic anhydrase 1 [2]): 316 µM

Cc1cc(O)nc(O)n1
Ki (Carbonic anhydrase 2): Not Active
inhibition (Carbonic anhydrase 1 [1]): Active
Ki (Carbonic anhydrase 1 [2]): 57.8 µM

Oc1ccccc1
inhibition (Carbonic anhydrase 1 [1]): Active

Cc1ccc(S(=O)(=O)n2cc(Br)c(=O)[nH]c2=O)cc1
Ki (Carbonic anhydrase 2; read-out: Ki): 28.9 µM
inhibition mode (Carbonic anhydrase 1 [1]): Active
Ki (Carbonic anhydrase 1 [2]): 10.8 µM

O=c1[nH]cc(CO)c(=O)[nH]1
Ki (Carbonic anhydrase 2): Not Active
Ki (Carbonic anhydrase 1 [2]): 49.5 µM

CS(=O)(=O)n1cc(Br)c(=O)[nH]c1=O
Ki (Carbonic anhydrase 2; read-out: Ki): 645 µM
inhibition mode (Carbonic anhydrase 1 [1]): Active
Ki (Carbonic anhydrase 1 [2]): 428 µM

Oc1ccccc1O
inhibition (Carbonic anhydrase 1 [1]): Active

Oc1cccc(O)c1
inhibition mode (Carbonic anhydrase 1 [1]): Active

Source: ChEMBL document CHEMBL3600346, “Synthesis and carbonic anhydrase inhibitory properties of novel uracil derivatives” (Bioorg Med Chem Lett, 2015)
